Read-outs that look alike come from different tables or passages of the source.
Key:
[1] = system: fasting homocysteine levels in healthy young women; settings: healthy young women with normal homocysteine; folic acid 400 micrograms/day, vitamin B6 2 mg/day; daily for four weeks; cited from earlier work
[2] = system: patients with venous circulatory disorders, CEAP stage 2 and CEAP stage 3; test: Observation test 1: CIVIQ-20 quality-of-life score after 12 weeks of therapy; format: in vivo, human; settings: for CIVIQ change (score): Visit 1 score - Visit 2 score (negative = improvement), 12 weeks; for CIVIQ (score), Visit 2: after 12 weeks of therapy; for CIVIQ (score), Visit 2 / CIVIQ (score), Visit 1: mean ± SD; for CIVIQ (score), Visit 1: baseline before treatment
Procedure: The study analysed data from a total of 90 people retrospectively.
The analysis was based on consecutive patient data from outpatients who met the inclusion criteria. All patients had venous circulatory disorders, with severity of disease corresponding to CEAP stage 2 and CEAP stage 3. The male:female ratio in the population analysed was 1:2
In total, data from four different patient groups were examined: • Group 1: patients taking 1000 mg of diosmin daily (n=45)· • 30 subjects had homocysteine levels below the risk threshold (<12.5 μmol/L normal homocysteinemia group)· • 15 subjects had homocysteine levels above the risk threshold (>12.5 μmol/L hyperhomocysteinemia group) • Group 2: patients taking a daily combination of 1000 mg diosmin+6 mg folic acid+20 mg vitamin B6 (diosmin plus) (45 patients)· • 30 subjects had homocysteine levels below the risk threshold (<12.5 μmol/L normal homocysteinemia group)· • 15 subjects had homocysteine levels above the risk threshold (>12.5 μmol/L hyperhomocysteinemia group)
The observation period was 12 weeks, during which time patients took the prescribed medication continuously. Before starting the medication treatment, a physical examination (to determine the CEAP stage of chronic venous insufficiency) and homocysteine level determination were performed and a CIVIQ-20 questionnaire was filled out. At the end of the 12-week follow-up period, the tests were repeated. For continuous variables, normality testing was performed. Variables with a normal distribution (age, CIVIQ score at visits 1 and 2) were characterised by the mean+SD, while variables with a non-normal distribution (homocysteine level at visits 1 and 2) were characterised by the median (25; 75 percentile). Differences in the values of variables with normal distribution by subgroup was tested by t test, and difference in the values of variables with non-normal distribution by subgroup was tested by chi-squared test.
(§1) The factors determining the increase in CIVIQ score were analysed using simple and complex linear regression. In the composite model, age and gender were included as significant regressors. […] The fit of the final composite linear model was characterised using the Ramsey RESET test and the Breusch-Pagan/Cook-Weisberg test. Model fit is indicated by a value of p>0.05. The composite model was also stratified according to baseline homocysteine level (normal vs. low), to investigate the interaction between baseline homocysteine level and the therapy used.

[3] = system: homocysteine level; test: Observation test 2: homocysteine level determination; format: in vivo, human; settings: median (25; 75 percentile); for homocysteine, Visit 2: after 12 weeks of therapy; for homocysteine, Visit 1: baseline before treatment, CEAP 6
Procedure: Data from a total of 60 people were analysed retrospectively. Patients attending outpatient care consecutively who met the inclusion criteria were included in the retrospective analysis. Patients all had venous circulatory disorders with a severity of disease corresponding to CEAP stage 6. The male:female ratio in the analysed population was 1:2. The data of a total of four different patient groups were analysed as follows. • Group 1: patients taking 1000 mg of diosmin daily (n=30) • 15 patients had homocysteine levels below the risk threshold (<12.5 μmol/L, normal homocysteinemia group). • 15 patients had homocysteine levels above the risk threshold (>12.5 μmol/L hyperhomocysteinemia group) • Group 2: patients taking a daily combination of 1000 mg diosmin+3 mg folic acid+20 mg vitamin B6 (diosmin plus) (30 patients) • 15 patients had homocysteine levels below the risk threshold (<12.5 μmol/L normal homocysteinemia group). • 15 patients had homocysteine levels above the risk threshold (>12.5 μmol/L hyperhomocysteinemia group) • Group 3: patients taking a combination of 3 mg folic acid+20 mg vitamin B6 (diosmin plus) daily (30 patients) • 15 patients had homocysteine levels below the risk threshold (<12.5 μmol/L normal homocysteinemia group). • 15 patients had homocysteine levels above the risk threshold (>12.5 μmol/L hyperhomocysteinemia group) The observation period was 12 weeks, during which time patients took the prescribed medication continuously. Before starting the medication treatment, a physical examination (to determine the CEAP stage of chronic venous insufficiency) and homocysteine level determination were performed. The area of the leg ulcer developed based on the venous circulatory disorder was also determined. At the end of the 12-week observation period, the tests were repeated. For continuous variables, normality tests were performed. Variables with a normal distribution (age) were characterised by the mean+SD, variables with a non-normal distribution (homocysteine level at visits 1 and 2, leg ulcer area at visits 1 and 2) were characterised by the median (25; 75 percentile). For comparisons between two subgroups, the difference in the values of variables with normal distribution by subgroup was tested by t test, and the difference in the values of variables with non-normal distribution by subgroup was tested by chi-squared test.

[4] = system: patients with venous circulatory disorders, CEAP stage 6 (leg ulcer); test: Observation test 2: area of leg ulcer after 12 weeks of therapy; format: in vivo, human; settings: median (25; 75 percentile); for change in ulcer size: 1st visit - 2nd visit (positive = reduction), 12 weeks; for ulcer size, Visit 2: after 12 weeks of therapy; for ulcer size, Visit 1: baseline before treatment
Procedure: Data from a total of 60 people were analysed retrospectively. Patients attending outpatient care consecutively who met the inclusion criteria were included in the retrospective analysis. Patients all had venous circulatory disorders with a severity of disease corresponding to CEAP stage 6. The male:female ratio in the analysed population was 1:2. The data of a total of four different patient groups were analysed as follows. • Group 1: patients taking 1000 mg of diosmin daily (n=30) • 15 patients had homocysteine levels below the risk threshold (<12.5 μmol/L, normal homocysteinemia group). • 15 patients had homocysteine levels above the risk threshold (>12.5 μmol/L hyperhomocysteinemia group) • Group 2: patients taking a daily combination of 1000 mg diosmin+3 mg folic acid+20 mg vitamin B6 (diosmin plus) (30 patients) • 15 patients had homocysteine levels below the risk threshold (<12.5 μmol/L normal homocysteinemia group). • 15 patients had homocysteine levels above the risk threshold (>12.5 μmol/L hyperhomocysteinemia group) • Group 3: patients taking a combination of 3 mg folic acid+20 mg vitamin B6 (diosmin plus) daily (30 patients) • 15 patients had homocysteine levels below the risk threshold (<12.5 μmol/L normal homocysteinemia group). • 15 patients had homocysteine levels above the risk threshold (>12.5 μmol/L hyperhomocysteinemia group)
The observation period was 12 weeks, during which time patients took the prescribed medication continuously. Before starting the medication treatment, a physical examination (to determine the CEAP stage of chronic venous insufficiency) and homocysteine level determination were performed. The area of the leg ulcer developed based on the venous circulatory disorder was also determined.
At the end of the 12-week observation period, the tests were repeated. For continuous variables, normality tests were performed. Variables with a normal distribution (age) were characterised by the mean+SD, variables with a non-normal distribution (homocysteine level at visits 1 and 2, leg ulcer area at visits 1 and 2) were characterised by the median (25; 75 percentile). For comparisons between two subgroups, the difference in the values of variables with normal distribution by subgroup was tested by t test, and the difference in the values of variables with non-normal distribution by subgroup was tested by chi-squared test.
as §1, with “effectiveness of the therapy was characterised by the change in the area of the leg ulcer. Factors” for “factors”, “change” for “increase”, “ulcer size” for “CIVIQ score”, “were” for “were included as”

[5] = system: homocysteine level; test: Observation test 1: homocysteine level determination; format: in vivo, human; settings: median (25; 75 percentile); for homocysteine, Visit 2: after 12 weeks of therapy; for homocysteine, Visit 1: baseline before treatment, CEAP 2-3
Procedure: The analysis was based on consecutive patient data from outpatients who met the inclusion criteria. All patients had venous circulatory disorders, with severity of disease corresponding to CEAP stage 2 and CEAP stage 3. The male:female ratio in the population analysed was 1:2 In total, data from four different patient groups were examined: • Group 1: patients taking 1000 mg of diosmin daily (n=45)· • 30 subjects had homocysteine levels below the risk threshold (<12.5 μmol/L normal homocysteinemia group)· • 15 subjects had homocysteine levels above the risk threshold (>12.5 μmol/L hyperhomocysteinemia group) • Group 2: patients taking a daily combination of 1000 mg diosmin+6 mg folic acid+20 mg vitamin B6 (diosmin plus) (45 patients)· • 30 subjects had homocysteine levels below the risk threshold (<12.5 μmol/L normal homocysteinemia group)· • 15 subjects had homocysteine levels above the risk threshold (>12.5 μmol/L hyperhomocysteinemia group) The observation period was 12 weeks, during which time patients took the prescribed medication continuously. Before starting the medication treatment, a physical examination (to determine the CEAP stage of chronic venous insufficiency) and homocysteine level determination were performed and a CIVIQ-20 questionnaire was filled out. At the end of the 12-week follow-up period, the tests were repeated. For continuous variables, normality testing was performed. Variables with a normal distribution (age, CIVIQ score at visits 1 and 2) were characterised by the mean+SD, while variables with a non-normal distribution (homocysteine level at visits 1 and 2) were characterised by the median (25; 75 percentile). Differences in the values of variables with normal distribution by subgroup was tested by t test, and difference in the values of variables with non-normal distribution by subgroup was tested by chi-squared test.

[6] = system: systolic blood pressure in untreated hypertensive patients; settings: interval in brackets, cited from earlier work
[7] = system: homocysteine levels in untreated hypertensive patients; settings: cited from earlier work; for homocysteine levels increased by: end of 4.5-year treatment
[8] = system: patients with venous ulcers; settings: cited from earlier work
[9] = hyperhomocysteine group (>12.5 μmol/L)
[10] = normal homocysteine group (<12.5 μmol/L)

Cc1ncc(CO)c(CO)c1O.Cl [Vitamin B6, vitamin B6]
reduction of homocysteine levels [1]: no effect

COc1ccc(-c2cc(=O)c3c(O)cc(O[C@@H]4O[C@H](CO[C@@H]5O[C@@H](C)[C@H](O)[C@@H](O)[C@H]5O)[C@@H](O)[C@H](O)[C@H]4O)cc3o2)cc1O [diosmin]
CIVIQ change (score) ([2]; hyperhomocysteine group): −14.56 ± 15.86 score | CIVIQ change (score) ([2]; normal homocysteine group): −12.09 ± 1.23 score | CIVIQ (score), Visit 2 ([2]; hyperhomocysteine group): 79.71 ± 10.81 score | CIVIQ (score), Visit 2 ([2]; normal homocysteine group): 78.44 ± 8.75 score | CIVIQ (score), Visit 1 ([2]; hyperhomocysteine group): 65.14 ± 8.45 score | CIVIQ (score), Visit 1 ([2]; normal homocysteine group): 66.09 ± 9.91 score | homocysteine, Visit 2 ([3]; hyperhomocysteine group): 19.13 (18.75; 19.42) μmol/L | homocysteine, Visit 2 ([3]; normal homocysteine group): 10.89 (10.21; 11.17) μmol/L | homocysteine, Visit 1 [3, 9]: 20.73 (20.16; 21.21) μmol/L | homocysteine, Visit 1 [3, 10]: 11.82 (11.59; 12.24) μmol/L | change in ulcer size ([4]; hyperhomocysteine group): 2.61 (2.01; 3.29) cm^2 | change in ulcer size ([4]; normal homocysteine group): 1.11 (0.64; 2.26) cm^2 | ulcer size, Visit 2 ([4]; hyperhomocysteine group): 10.56 (10.28; 10.91) cm^2 | ulcer size, Visit 2 ([4]; normal homocysteine group): 7.09 (6.12; 7.67) cm^2 | ulcer size, Visit 1 ([4]; hyperhomocysteine group): 13.62 (12.44; 13.85) cm^2 | ulcer size, Visit 1 ([4]; normal homocysteine group): 8.11 (7.07; 8.73) cm^2 | homocysteine, Visit 2 ([5]; hyperhomocysteine group): 11.69 (11.52; 11.91) μmol/L | homocysteine, Visit 2 ([5]; normal homocysteine group): 7.39 (7.65; 7.80) μmol/L | homocysteine, Visit 1 [5, 9]: 14.74 (13.24; 15.79) μmol/L | homocysteine, Visit 1 [5, 10]: 8.00 (7.23; 8.83) μmol/L

CCOC(=O)[C@H](CCc1ccccc1)N[C@@H](C)C(=O)N1CCC[C@H]1C(=O)O [enalapril]
Reduction in systolic blood pressure ([6]; baseline homocysteine 10-<15 versus reference category <10): −0.77 (−1.53; −0.01) mm Hg | Reduction in systolic blood pressure ([6]; baseline homocysteine ≥15 versus reference category <10): −1.70 (−2.68; −0.72) mm Hg | homocysteine levels increased by ([7]; baseline homocysteine <10 μmol/L): 1.7 µmol/L | homocysteine levels increased by ([7]; baseline homocysteine between 10 and 15 μmol/L): 1.1 µmol/L | homocysteine levels decreased by ([7]; baseline homocysteine ≥15 μmol/L, median 4.5 years, 10 mg enalapril, 0.8 mg folic acid daily): 2.4 µmol/L

Nc1nc2ncc(CNc3ccc(C(=O)N[C@@H](CCC(=O)O)C(=O)O)cc3)nc2c(=O)[nH]1 [folic acid]
reduction of homocysteine levels [1]: 11.5% | ulcer healing ([8]; chronic venous ulcer disease with hyperhomocysteinemia): accelerated ulcer healing | cure rate ([8]; group A: hyperhomocysteinemia, folic acid 1.2 mg/day for 12 months plus basic treatment, group B basic treatment only 63·33%, P<0.05): 78.75%
